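How tested: cells in 96-well plates exposed to compound for 48 hours at five concentrations. GI50 marks 50% less growth. TGI denotes the concentration required for complete inhibition of growth.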
What was measured:
Assay in all cases: NCI anticancer screen, dose series, 48 h
A549 NSCLC = system: A549 NSCLC
M19-MEL melanoma = system: M19-MEL melanoma
KM20L2 colon = system: KM20L2 colon
SK-MEL-28 melanoma = system: SK-MEL-28 melanoma
DMS 114 small cell lung = system: DMS 114 small cell lung
SF-539 CNS = system: SF-539 CNS
SNB-78 CNS = system: SNB-78 CNS
KM12 colon = system: KM12 colon
LXFL 529 NSCLC = system: LXFL 529 NSCLC
DLD-1 colon = system: DLD-1 colon
T-47D breast = system: T-47D breast
HS 578T breast = system: HS 578T breast

Structure (SMILES): C=CCNC(=S)OCCCCCCCCCC
- TGI (A549 NSCLC): 76.2 µM
- TGI (M19-MEL melanoma): 32.5 µM
- TGI (KM20L2 colon): 33.2 µM
- TGI (SK-MEL-28 melanoma): 44.9 µM
- TGI (DMS 114 small cell lung): 32.1 µM
- TGI (SF-539 CNS): 34 µM
- TGI (SNB-78 CNS): 36.7 µM
- TGI (KM12 colon): 26.6 µM
- TGI (LXFL 529 NSCLC): 28.5 µM
- TGI (DLD-1 colon): 30.7 µM

Structure (SMILES): O=C1c2ccccc2C2(O)Oc3cccc(O)c3C12O (stereo not drawn)
- TGI (A549 NSCLC): > 100 µM
- TGI (M19-MEL melanoma): > 100 µM
- TGI (KM20L2 colon): > 100 µM
- TGI (SK-MEL-28 melanoma): > 100 µM
- TGI (DMS 114 small cell lung): > 100 µM
- TGI (SF-539 CNS): > 100 µM
- TGI (SNB-78 CNS): > 100 µM
- TGI (KM12 colon): > 100 µM
- TGI (LXFL 529 NSCLC): > 100 µM
- TGI (DLD-1 colon): > 100 µM

Structure (SMILES): Cc1ccc([Se][Se]c2ccc(C)cc2)cc1
- TGI (A549 NSCLC): > 100 µM
- TGI (M19-MEL melanoma): 40.6 µM
- TGI (KM20L2 colon): > 100 µM
- TGI (SK-MEL-28 melanoma): 81.3 µM
- TGI (DMS 114 small cell lung): 57 µM
- TGI (SF-539 CNS): > 100 µM
- TGI (SNB-78 CNS): 87.6 µM
- TGI (KM12 colon): > 100 µM
- TGI (LXFL 529 NSCLC): 31.7 µM
- TGI (DLD-1 colon): > 100 µM

Structure (SMILES): COC(=O)C(=O)C(C#N)c1ccc(Cl)c(Cl)c1 (stereo not drawn)
- TGI (A549 NSCLC): > 100 µM
- TGI (M19-MEL melanoma): > 100 µM
- TGI (KM20L2 colon): > 100 µM
- TGI (SK-MEL-28 melanoma): > 100 µM
- TGI (SF-539 CNS): > 100 µM
- TGI (SNB-78 CNS): > 100 µM
- TGI (KM12 colon): > 100 µM
- TGI (LXFL 529 NSCLC): > 100 µM
- TGI (DLD-1 colon): > 100 µM

Structure (SMILES): COC(=O)c1ccccc1N=Cc1ccc(N(CCC#N)S(=O)(=O)c2ccccc2)cc1
- TGI (A549 NSCLC): > 100 µM
- TGI (M19-MEL melanoma): > 100 µM
- TGI (KM20L2 colon): > 100 µM
- TGI (SK-MEL-28 melanoma): > 100 µM
- TGI (SF-539 CNS): > 100 µM
- TGI (SNB-78 CNS): > 100 µM
- TGI (KM12 colon): > 100 µM
- TGI (LXFL 529 NSCLC): > 100 µM
- TGI (DLD-1 colon): > 100 µM

Structure (SMILES): O=C1NC(=S)NC(=O)C1=Cc1ccc2ccccc2n1
- TGI (A549 NSCLC): > 100 µM
- TGI (M19-MEL melanoma): > 100 µM
- TGI (KM20L2 colon): > 100 µM
- TGI (SK-MEL-28 melanoma): > 100 µM
- TGI (DMS 114 small cell lung): > 100 µM
- TGI (SF-539 CNS): > 100 µM
- TGI (SNB-78 CNS): > 100 µM
- TGI (KM12 colon): > 100 µM
- TGI (LXFL 529 NSCLC): > 100 µM
- TGI (DLD-1 colon): > 100 µM

Structure (SMILES): COc1cccc2c1C(=O)c1c(O)c3c(c(O)c1C2=O)C[C@@](O)(/C(C)=N\O)C[C@@H]3OC1CC(N)C(O)C(C)O1 (stereo partly drawn)
- TGI (A549 NSCLC): 6.22 µM
- TGI (M19-MEL melanoma): 3.79 µM
- TGI (T-47D breast): 11 µM
- TGI (KM20L2 colon): 30.9 µM
- TGI (SK-MEL-28 melanoma): 3.98 µM
- TGI (DMS 114 small cell lung): 2.58 µM
- TGI (SF-539 CNS): 3.8 µM
- TGI (SNB-78 CNS): 8.2 µM
- TGI (KM12 colon): 15.8 µM
- TGI (HS 578T breast): 6.58 µM
- TGI (LXFL 529 NSCLC): 7.11 µM
- TGI (DLD-1 colon): 18.2 µM

Structure (SMILES): CC(C)c1ccc(O)c(=O)cc1
- GI50 (A549 NSCLC): 4.69 µM
- TGI (A549 NSCLC): > 71.4 µM
- TGI (M19-MEL melanoma): > 70.9 µM
- GI50 (T-47D breast): 21 µM
- TGI (KM20L2 colon): > 100 µM
- TGI (SK-MEL-28 melanoma): > 100 µM
- TGI (DMS 114 small cell lung): 11.5 µM
- GI50 (SF-539 CNS): 7.69 µM
- TGI (SF-539 CNS): 17 µM
- TGI (SNB-78 CNS): > 91.1 µM
- GI50 (KM12 colon): 5.28 µM
- TGI (KM12 colon): > 100 µM
- TGI (LXFL 529 NSCLC): > 100 µM
- TGI (DLD-1 colon): > 100 µM

Structure (SMILES): COc1cc(C(CC(OC)OC)=C(C#N)C#N)cc(OC)c1OC
- TGI (A549 NSCLC): > 100 µM
- TGI (M19-MEL melanoma): 33.4 µM
- TGI (KM20L2 colon): 69.4 µM
- TGI (SK-MEL-28 melanoma): > 100 µM
- TGI (DMS 114 small cell lung): 87.6 µM
- TGI (SF-539 CNS): 37.1 µM
- TGI (SNB-78 CNS): > 100 µM
- TGI (KM12 colon): 60.5 µM
- TGI (LXFL 529 NSCLC): > 100 µM
- TGI (DLD-1 colon): 13.7 µM

Structure (SMILES): CCOC(=O)CN(Cc1ccccc1)Cc1c(C(=O)c2ccccc2)c2ccccc2n1C(=O)c1ccccc1
- TGI (A549 NSCLC): > 100 µM
- TGI (M19-MEL melanoma): > 100 µM
- TGI (KM20L2 colon): > 100 µM
- TGI (SK-MEL-28 melanoma): > 100 µM
- TGI (DMS 114 small cell lung): > 100 µM
- TGI (SF-539 CNS): > 100 µM
- TGI (SNB-78 CNS): > 100 µM
- TGI (KM12 colon): > 100 µM
- TGI (LXFL 529 NSCLC): > 100 µM
- TGI (DLD-1 colon): > 100 µM

Structure (SMILES): Oc1ccccc1C=Nc1ccccc1N=Cc1ccccc1O
- TGI (A549 NSCLC): > 100 µM
- TGI (M19-MEL melanoma): > 100 µM
- TGI (KM20L2 colon): > 100 µM
- TGI (SK-MEL-28 melanoma): > 100 µM
- TGI (DMS 114 small cell lung): > 100 µM
- TGI (SF-539 CNS): > 100 µM
- TGI (KM12 colon): > 100 µM
- TGI (LXFL 529 NSCLC): > 100 µM

Structure (SMILES): Cc1cccc(N2C(=O)C(=O)C(c3nc4ccccc4s3)C(=O)C2=O)c1C
- TGI (A549 NSCLC): > 100 µM
- TGI (M19-MEL melanoma): > 100 µM
- TGI (KM20L2 colon): > 100 µM
- TGI (SK-MEL-28 melanoma): > 100 µM
- TGI (DMS 114 small cell lung): > 100 µM
- TGI (SF-539 CNS): > 100 µM
- TGI (SNB-78 CNS): > 100 µM
- TGI (LXFL 529 NSCLC): > 100 µM
- TGI (DLD-1 colon): > 100 µM

Structure (SMILES): Cc1nn(C)c(=S)n(C)c1=O
- TGI (A549 NSCLC): 23.8 µM
- TGI (M19-MEL melanoma): > 100 µM
- TGI (KM20L2 colon): > 100 µM
- TGI (SK-MEL-28 melanoma): > 100 µM
- TGI (DMS 114 small cell lung): 0.842 µM
- TGI (SF-539 CNS): 21.9 µM
- TGI (SNB-78 CNS): > 100 µM
- TGI (LXFL 529 NSCLC): 54.6 µM
- TGI (DLD-1 colon): > 100 µM

Structure (SMILES): Cc1nn(C)c(=O)c2nn(-c3ccccc3)c(C)c12
- TGI (A549 NSCLC): > 100 µM
- TGI (M19-MEL melanoma): > 100 µM
- TGI (KM20L2 colon): > 100 µM
- TGI (SK-MEL-28 melanoma): > 100 µM
- TGI (DMS 114 small cell lung): > 100 µM
- TGI (SF-539 CNS): > 100 µM
- TGI (SNB-78 CNS): > 100 µM
- TGI (KM12 colon): > 100 µM
- TGI (LXFL 529 NSCLC): > 100 µM
- TGI (DLD-1 colon): > 100 µM

Structure (SMILES): O=C1CCC2CCOc3ccc(O)c1c32 (stereo not drawn)
- TGI (A549 NSCLC): > 100 µM
- TGI (M19-MEL melanoma): > 100 µM
- TGI (KM20L2 colon): > 100 µM
- TGI (SK-MEL-28 melanoma): > 100 µM
- TGI (DMS 114 small cell lung): > 100 µM
- TGI (SF-539 CNS): > 100 µM
- TGI (SNB-78 CNS): > 100 µM
- TGI (KM12 colon): > 100 µM
- TGI (DLD-1 colon): > 100 µM

Structure (SMILES): O=C(O/N=C1/CCCC/C1=C\c1ccccc1)c1ccc(Cl)cc1
- TGI (A549 NSCLC): > 100 µM
- TGI (M19-MEL melanoma): > 100 µM
- TGI (KM20L2 colon): > 100 µM
- TGI (SK-MEL-28 melanoma): > 100 µM
- TGI (SF-539 CNS): > 100 µM
- TGI (SNB-78 CNS): > 100 µM
- TGI (KM12 colon): > 100 µM
- TGI (LXFL 529 NSCLC): > 100 µM
- TGI (DLD-1 colon): > 100 µM

Structure (SMILES): C1C[OH+]CC[OH+]CC[OH+]CC[OH+]CC[OH+]CC[OH+]1.[Cl-].[Ta+5]
- GI50 (A549 NSCLC): > 100 µM
- TGI (A549 NSCLC): > 100 µM
- GI50 (KM20L2 colon): > 100 µM
- TGI (KM20L2 colon): > 100 µM
- GI50 (SK-MEL-28 melanoma): > 100 µM
- TGI (SK-MEL-28 melanoma): > 100 µM
- GI50 (SF-539 CNS): > 100 µM
- TGI (SF-539 CNS): > 100 µM
- GI50 (KM12 colon): > 100 µM
- TGI (KM12 colon): > 100 µM

Structure (SMILES): O=C(/C=C/c1ccc(Cl)cc1)c1ccncc1
- TGI (A549 NSCLC): > 100 µM
- TGI (M19-MEL melanoma): 68.7 µM
- TGI (KM20L2 colon): > 100 µM
- TGI (SK-MEL-28 melanoma): > 100 µM
- TGI (DMS 114 small cell lung): > 100 µM
- TGI (SF-539 CNS): > 100 µM
- TGI (SNB-78 CNS): > 100 µM
- TGI (KM12 colon): 86.6 µM
- TGI (LXFL 529 NSCLC): > 100 µM
- TGI (DLD-1 colon): > 100 µM

Structure (SMILES): CCCCCCCCCC(=O)N[C@H]1CCc2cc(OC)c(OC)c(OC)c2-c2ccc(SC)c(=O)cc21
- TGI (A549 NSCLC): > 100 µM
- TGI (M19-MEL melanoma): 67.4 µM
- TGI (KM20L2 colon): 0.0387 µM
- TGI (DMS 114 small cell lung): 0.0403 µM
- TGI (SF-539 CNS): 0.0491 µM
- TGI (SNB-78 CNS): 38.9 µM
- TGI (KM12 colon): 0.0436 µM
- TGI (LXFL 529 NSCLC): 96.7 µM
- GI50 (DLD-1 colon): 11.2 µM
- TGI (DLD-1 colon): 57.7 µM
